Assay results published in US20230331718A1, “COMPOSITIONS FOR MODULATING SPLICING” (Skyhawk Therapeutics, Inc., priority 2020, published 2023).
pEC50, pIC50: −log10 of the molar value.

What was measured:
[1] = tested on: SMN2 Splicing D7 (SMN Δ7 transcript); assay: SMN Quantitative Splicing Assay (qPCR); assay type: cell-based, human; conditions: 24 h, SMA patient fibroblasts (GM03813), 2.5 µM to 0.6 nM
Procedure: Spinal muscular atrophy (SMA) patient fibroblasts (GM03813, Coriell) were plated in 96-well plates at 50,000 cells/well. […] Treated cells were lysed and cDNA synthesized using the Fast Advanced Cells-to-Ct kit (Thermofisher A35378) according to the manufacturer’s instructions. 2 µL of each cDNA were used in qPCR reactions. […] Reactions were run in a Quant Studio 6 qPCR instrument with default settings.

SMN2 Protein = assay: SMN Protein Assay (MSD); assay type: cell-based, human; conditions: SMA patient fibroblasts, 48 hours, 0.6 nM to 2.5 µM
Procedure: Spinal muscular atrophy (SMA) patient fibroblasts were plated in 96-well plates at 7,000 cells/well. Compounds were added in concentrations ranging from 0.6 nM to 2.5 µM, incubated for 48 hours and the cells were lysed with 100 µL of lysis buffer. 20 µL of lysate was used for SMN protein measurement by Mesoscale Discovery (MSD) assay developed by PharmOptima (Michigan). A standard curve prepared with SMN protein ranging from 1 µg/ml to 19.5pg/ml was used in each MSD plate to calculate the absolute SMN protein amount in each sample.

## CCn1cnc2cc(-c3ncc(N(C)C4CC5CCCC(N5)C4F)nn3)c(O)cc2c1=O (stereo not drawn) [Compound 126]
[1]; Homo sapiens, Fibroblast
  pIC50: 6.30 to 7.00
SMN2 Protein
  pEC50: 7.00 to 7.29

## CCn1ccc2cc(-c3ncc(N(C)C4CC5CCCC(N5)C4F)nn3)c(O)cc2c1=O (stereo not drawn) [Compound 122]
[1]; Homo sapiens, Fibroblast
  pIC50: 7.00 to 7.29
SMN2 Protein
  pEC50: 5.00 to 6.30

## CN(c1cnc(-c2cc3oc(C(F)(F)F)cc(=O)c3cc2O)nn1)[C@@H]1CC2CCCC(N2)[C@@H]1F (stereo partly drawn) [Compound 161]
[1]; Homo sapiens, Fibroblast
  pIC50: 7.00 to 7.29
SMN2 Protein
  pEC50: 7.82 to 11.00

## CCc1cc(=O)c2cc(-c3ncc(N(C)[C@@H]4C[C@H]5CCCC(N5)[C@@H]4F)nn3)c(O)cc2o1 [Compound 115]
[1]; Homo sapiens, Fibroblast
  pIC50: 6.30 to 7.00
SMN2 Protein
  pEC50: 7.30 to 7.80

## CCn1cnc2cc(-c3ncc(N(C)C4CC5CCC(N5)[C@@H]4F)nn3)c(O)cc2c1=O (stereo partly drawn) [Compound 31]
[1]; Homo sapiens, Fibroblast
  pIC50: 7.00 to 7.29
SMN2 Protein
  pEC50: 7.00 to 7.29

## CN(c1cnc(-c2cc3cccnc3cc2O)nn1)C1CC2CCC(N2)[C@H]1F (stereo partly drawn) [Compound 24]
[1]; Homo sapiens, Fibroblast
  pIC50: 7.30 to 7.80
SMN2 Protein
  pEC50: 7.30 to 7.80

## Cc1nc2cc(-c3ncc(N(C)[C@@H]4CC5CCC(N5)[C@@H]4F)nn3)c(O)cc2c(=O)n1C (stereo partly drawn) [Compound 213]
[1]; Homo sapiens, Fibroblast
  pIC50: 7.30 to 7.80
SMN2 Protein
  pEC50: 7.82 to 11.00

## CN(c1cnc(-c2cc3ccn(C)c(=O)c3cc2O)nn1)C1CC2COCC(C1)N2 (stereo not drawn) [Compound 147]
[1]; Homo sapiens, Fibroblast
  pIC50: 7.82 to 11.00
SMN2 Protein
  pEC50: 7.82 to 11.00

## CN(c1cnc(-c2cc3occc(=O)c3cc2O)nn1)[C@@H]1CC2CCC[C@H](N2)[C@@H]1F [Compound 60]
[1]; Homo sapiens, Fibroblast
  pIC50: 7.30 to 7.80
SMN2 Protein
  pEC50: 7.82 to 11.00

## CN(c1cnc(-c2cc3ncn(C)c(=O)c3cc2O)nn1)[C@H]1C[C@]2(C)COC[C@](C)(C1)N2 [Compound 150]
[1]; Homo sapiens, Fibroblast
  pIC50: 7.82 to 11.00
SMN2 Protein
  pEC50: 7.82 to 11.00

## CN(c1cnc(-c2cc3occc(=O)c3cc2O)nn1)[C@@H]1CC2COC[C@@H](C1)N2 [Compound 69]
[1]; Homo sapiens, Fibroblast
  pIC50: 7.82 to 11.00
SMN2 Protein
  pEC50: 7.82 to 11.00

## CN(c1cnc(-c2cc3ccn(C)c(=O)c3cc2O)nn1)[C@@H]1CC2CC[C@](C)(N2)[C@@H]1F [Compound 172]
[1]; Homo sapiens, Fibroblast
  pIC50: 7.82 to 11.00
SMN2 Protein
  pEC50: 7.82 to 11.00

## Cc1cc2cc(-c3ncc(N(C)[C@@H]4CC5CCCC(N5)[C@@H]4F)nn3)c(O)cc2cn1 (stereo partly drawn) [Compound 47]
[1]; Homo sapiens, Fibroblast
  pIC50: 7.00 to 7.29
SMN2 Protein
  pEC50: 7.30 to 7.80

## CN(c1cnc(-c2cc3ccn(C)c(=O)c3cc2O)nn1)[C@H]1CC2CC[C@@H](N2)[C@H]1F [Compound 7A]
[1]; Homo sapiens, Fibroblast
  pIC50: 7.82 to 11.00
SMN2 Protein
  pEC50: 7.82 to 11.00

## Cc1cnc2cc(-c3ncc(N(C)[C@H]4CC5CCCC(N5)[C@H]4F)nn3)c(O)cc2n1 (stereo partly drawn) [Compound 106]
[1]; Homo sapiens, Fibroblast
  pIC50: 7.30 to 7.80
SMN2 Protein
  pEC50: 7.82 to 11.00

## [2H]C([2H])([2H])N(c1cnc(-c2cc3ccn(C([2H])([2H])[2H])c(=O)c3cc2O)nn1)[C@H]1C[C@@H]2CCC(N2)[C@H]1F [Compound 167]
[1]; Homo sapiens, Fibroblast
  pIC50: 7.82 to 11.00
SMN2 Protein
  pEC50: 7.82 to 11.00

## Cc1cc2cc(O)c(-c3ncc(N(C)[C@H]4C[C@@H]5CCCC(N5)[C@H]4F)nn3)cc2cn1 [Compound 78]
[1]; Homo sapiens, Fibroblast
  pIC50: 7.82 to 11.00
SMN2 Protein
  pEC50: 7.82 to 11.00

## CN(c1cnc(-c2cc3cccnc3cc2O)nn1)C1CC2CCC(N2)[C@@H]1F (stereo partly drawn) [Compound 23]
[1]; Homo sapiens, Fibroblast
  pIC50: 6.30 to 7.00
SMN2 Protein
  pEC50: 5.00 to 6.30

## CN(c1cnc(-c2cc3c(F)cn(C)c(=O)c3cc2O)nn1)C1CC2CCCC(N2)[C@H]1F (stereo partly drawn) [Compound 137]
[1]; Homo sapiens, Fibroblast
  pIC50: 7.82 to 11.00
SMN2 Protein
  pEC50: 7.82 to 11.00

## Cc1cc2cc(-c3ncc(N(C)[C@H]4CC5CCCC(N5)[C@H]4F)nn3)c(O)cc2cn1 (stereo partly drawn) [Compound 48]
[1]; Homo sapiens, Fibroblast
  pIC50: 7.82 to 11.00
SMN2 Protein
  pEC50: 7.82 to 11.00

## CN(c1cnc(-c2cc3occc(=O)c3cc2O)nn1)[C@H]1C[C@@H]2CCC(N2)[C@H]1F [Compound 18]
[1]; Homo sapiens, Fibroblast
  pIC50: 7.82 to 11.00
SMN2 Protein
  pEC50: 7.82 to 11.00

## [2H]C([2H])([2H])N(c1cnc(-c2cc3c(F)cn(CC)c(=O)c3cc2O)nn1)[C@H]1C[C@@H]2CC[C@@H](N2)[C@H]1F [Compound 201]
[1]; Homo sapiens, Fibroblast
  pIC50: 7.82 to 11.00
SMN2 Protein
  pEC50: 7.82 to 11.00

## CN(c1cnc(-c2cc3occc(=O)c3cc2O)nn1)[C@@H]1C[C@@]2(C)CC[C@](C)(N2)[C@@H]1F [Compound 59]
[1]; Homo sapiens, Fibroblast
  pIC50: 7.30 to 7.80
SMN2 Protein
  pEC50: 7.30 to 7.80

## CN(c1cnc(-c2cc3ccncc3cc2O)nn1)C1CC2CCC(N2)[C@H]1F (stereo partly drawn) [Compound 22]
[1]; Homo sapiens, Fibroblast
  pIC50: 7.30 to 7.80
SMN2 Protein
  pEC50: 7.82 to 11.00

## CN(c1cnc(-c2cc3ccn(C)c(=O)c3cc2O)nn1)[C@@H]1C[C@@]2(C)CC[C@H](N2)[C@@H]1F [Compound 174]
[1]; Homo sapiens, Fibroblast
  pIC50: 7.82 to 11.00
SMN2 Protein
  pEC50: 7.82 to 11.00

## CN(c1cnc(-c2cc3cnn(C)c(=O)c3cc2O)nn1)[C@@H]1C[C@@]2(C)CC[C@H](N2)[C@@H]1F [Compound 186]
[1]; Homo sapiens, Fibroblast
  pIC50: 7.30 to 7.80
SMN2 Protein
  pEC50: 7.82 to 11.00

## CN(c1cnc(-c2cc3c(=O)ccoc3cc2O)nn1)[C@H]1CC2CCCC(N2)[C@H]1F (stereo partly drawn) [Compound 110]
[1]; Homo sapiens, Fibroblast
  pIC50: 7.00 to 7.29
SMN2 Protein
  pEC50: 6.30 to 7.00

## CN(c1cnc(-c2cc3cnccc3cc2O)nn1)[C@H]1C[C@@H]2CC[C@@H](N2)[C@H]1F (single isomer, unassigned) [Compound 5B]
[1]; Homo sapiens, Fibroblast
  pIC50: 7.30 to 7.80
SMN2 Protein
  pEC50: 7.82 to 11.00

## CN(c1cnc(-c2cc3oc(C(F)(F)F)cc(=O)c3cc2O)nn1)[C@H]1C[C@@H]2CCC(N2)[C@H]1F [Compound 80]
[1]; Homo sapiens, Fibroblast
  pIC50: 7.82 to 11.00
SMN2 Protein
  pEC50: 7.82 to 11.00

## Cc1cnc2cc(-c3ncc(N(C)[C@@H]4CC5CC[C@H](N5)[C@@H]4F)nn3)c(O)cc2n1 [Compound 53]
[1]; Homo sapiens, Fibroblast
  pIC50: 7.00 to 7.29
SMN2 Protein
  pEC50: 6.30 to 7.00

## CN(c1cnc(-c2cc3ccn(C)c(=O)c3cc2O)nn1)[C@H]1C[C@@H]2CC[C@@](C)(N2)[C@H]1F [Compound 171]
[1]; Homo sapiens, Fibroblast
  pIC50: 7.82 to 11.00
SMN2 Protein
  pEC50: 7.82 to 11.00

## CN(c1cnc(-c2cc3ccn(C)c(=O)c3cc2O)nn1)C1CC2CC(F)(F)C(C1)N2 (stereo not drawn) [Compound 141]
[1]
  pIC50: 6.30 to 7.00
SMN2 Protein
  pEC50: 6.30 to 7.00

## CCc1coc2cc(-c3ncc(N(C)[C@H]4C[C@@H]5CC[C@@H](N5)[C@H]4F)nn3)c(O)cc2c1=O (single isomer, unassigned) [Compound 96]
[1]; Homo sapiens, Fibroblast
  pIC50: 7.82 to 11.00
SMN2 Protein
  pEC50: 7.82 to 11.00

## CN(c1cnc(-c2cc3occ(C(F)(F)F)c(=O)c3cc2O)nn1)[C@@H]1C[C@H]2CC[C@H](N2)[C@@H]1F [Compound 89]
[1]; Homo sapiens, Fibroblast
  pIC50: 6.30 to 7.00
SMN2 Protein
  pEC50: 7.00 to 7.29

## CCn1ccc2cc(-c3ncc(N(C)[C@H]4C[C@@H]5CCCC(N5)[C@H]4F)nn3)c(O)cc2c1=O [Compound 121]
[1]; Homo sapiens, Fibroblast
  pIC50: 7.82 to 11.00
SMN2 Protein
  pEC50: 7.82 to 11.00

## [2H]C([2H])([2H])N(c1cnc(-c2cc3c(F)cn(CC)c(=O)c3cc2O)nn1)[C@@H]1C[C@H]2CC[C@H](N2)[C@@H]1F [Compound 202]
[1]; Homo sapiens, Fibroblast
  pIC50: 7.00 to 7.29
SMN2 Protein
  pEC50: 7.82 to 11.00

## [2H]C([2H])([2H])n1ncc2cc(-c3ncc(N(C)[C@@H]4CC5CC[C@H](N5)[C@@H]4F)nn3)c(O)cc2c1=O [Compound 182]
[1]; Homo sapiens, Fibroblast
  pIC50: 7.82 to 11.00
SMN2 Protein
  pEC50: 7.82 to 11.00

## Cc1nc2cc(O)c(-c3ncc(N(C)[C@@H]4C[C@H]5CCC(N5)[C@@H]4F)nn3)cc2nc1C [Compound 86]
[1]; Homo sapiens, Fibroblast
  pIC50: 7.00 to 7.29
SMN2 Protein
  pEC50: 7.00 to 7.29

## Cc1cc(=O)c2cc(O)c(-c3ncc(N(C)[C@@H]4C[C@H]5CCC(N5)[C@@H]4F)nn3)cc2o1 (single isomer, unassigned) [Compound 6A]
[1]; Homo sapiens, Fibroblast
  pIC50: 7.30 to 7.80
SMN2 Protein
  pEC50: 7.82 to 11.00

## [2H]C([2H])([2H])n1cnc2cc(-c3ncc(N(C)[C@@H]4CC5CC[C@H](N5)[C@@H]4F)nn3)c(O)cc2c1=O [Compound 178]
[1]; Homo sapiens, Fibroblast
  pIC50: 7.82 to 11.00
SMN2 Protein
  pEC50: 7.82 to 11.00

## CCn1ccc2cc(O)c(-c3ncc(N(C)[C@@H]4C[C@H]5CCC(N5)[C@@H]4F)nn3)cc2c1=O [Compound 83]
[1]; Homo sapiens, Fibroblast
  pIC50: 6.30 to 7.00
SMN2 Protein
  pEC50: 7.30 to 7.80

## CN(c1cnc(-c2cc3cnn(C)c(=O)c3cc2O)nn1)C1CC2CCCC(N2)C1F (stereo not drawn) [Compound 131]
[1]
  pIC50: 7.82 to 11.00
SMN2 Protein
  pEC50: 7.82 to 11.00
